What was measured:
VHL = VHL (Homo sapiens, UniProt P40337); experiment: cell-based; parameters: full-length, NanoLuc fusion (Promega N2741); species or system HEK293T; NanoBRET VHL tracer displacement in permeabilized cells, NanoLuc-VHL fusion; conditions: permeabilized cells; read-out: VHL permeabilized (IC50±sd)/µM
AURKA = target: T1, AURKA (Homo sapiens, UniProt O14965); experiment: NanoBRET target engagement assay, intact and permeabilized cells; conditions: mean of duplicates, ^a values estimated by extrapolation
T1 sequence (O14965 1-403): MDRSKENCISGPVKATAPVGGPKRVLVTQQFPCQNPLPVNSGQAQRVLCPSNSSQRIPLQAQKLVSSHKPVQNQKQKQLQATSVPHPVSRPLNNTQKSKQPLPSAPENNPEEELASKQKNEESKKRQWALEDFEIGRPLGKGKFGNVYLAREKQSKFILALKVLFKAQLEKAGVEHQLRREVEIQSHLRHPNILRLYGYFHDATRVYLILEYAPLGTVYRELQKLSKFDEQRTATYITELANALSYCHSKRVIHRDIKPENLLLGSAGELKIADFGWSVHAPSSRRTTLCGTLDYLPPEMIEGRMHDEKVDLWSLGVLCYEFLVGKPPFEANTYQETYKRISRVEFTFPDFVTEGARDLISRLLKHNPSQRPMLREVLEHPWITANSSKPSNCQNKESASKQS
Description: (§9) Compounds were pipetted at various concentrations using an Echo acoustic dispenser (Labcyte), immediately followed by Tracer K10 (Promega, Tracer DB ID: T000008) for AAK1 and Aurora A and VHL Tracer (Promega, Tracer DB ID: T000019) for VHL, at an optimum KD concentration chosen from TracerDB ( tracerdb.org), respectively.
(§10) To measure the BRET signal, the NanoBRET® NanoGlo Substrate (Promega:
(§11) N1573) was added as per the manufacturer’s protocol, and filtered luminescence was measured on a PHERAstar plate reader (BMG Labtech) equipped with a luminescence filter pair (450 nm BP filter (donor) and 610 nm LP filter (acceptor)). For NanoBRET® measurement in permeabilized cells, 25 nL of digitonin (0.05 μg/μL) was pipetted into each well using an
(§12) After incubation, the BRET signals were measured by a PHERAstar plate reader (BMG Labtech) following the same procedure as intact NanoBRET® measurement. Competitive displacement data were then normalized to controls and were plotted using GraphPad Prism 9 software employing a normalized 3-parameter curve fit with the following equation:

[1] = tested on: kinase protein levels in MCF-7 cells; experiment: TMT-labeled quantitative proteomics; assay type: cell-based, human; conditions: for kinase degradation: MCF-7 cells, 1 μM, 6 h; for log2FC (compound/DMSO): MCF7, 1 µM, set5
Description: (§1) 50 µl of SDS Lysis Buffer (2% SDS, 50 mM TRIS pH 8.5, 10 mM TCEP, 40 mM CAA) was added to each sample. Cells were transferred into low binding reaction tubes (Eppendorf:
(§2) Methanol/Chloroform Precipitation. 200 µl of methanol and 50 µl of chloroform were added to each sample reaction tube and mixed via vortex. 150 µl of milliQ-H2O were added and samples were vortexed further. Samples were centrifuged for 5 minutes at 15000 g and the aqueous layer above the interphase was removed. 150 µl of methanol was added, samples were vortexed and centrifuged for 10 minutes at 15000 g to precipitate the pellet. The aforementioned wash procedure was repeated twice before transferring the pellet to a new low bind reaction tube in which it was allowed to dry for 5 minutes.
(§3) Dissolving the Protein Pellet and Protein Quantification. 50 µl of digestion buffer (8 M Urea, 50 mM TRIS pH 8) was added to each sample before vortexing and shaking at 750 rpm at room temperature for 10 minutes to solubilize the pellet. Protein quantification via PierceTM […]
(§4) Protein Digestion. Samples were diluted 1:2 with 50 mM TRIS pH 8.5 to reach a final concentration of 4 M Urea. Lys-C (Promega: VA1170) was added at a 1:100 enzyme/substrate ratio. Samples were agitated at 550 rpm and 37 °C for 3 h. Samples were further diluted with 50 mM TRIS pH 8.5 to a final concentration of 1 M Urea and Trypsin (Promega: V5280) was added at a 1:100 enzyme/substrate ratio. Samples were agitated overnight at 550 rpm and 37 °C. The digestion was stopped the following day via addition of TFA to a final concentration […]
(§5) Solid Phase Extraction via C18 Cartridges. Sep-Pak C18 Cartridges (Waters: WAT054955) were used for solid phase extraction of digested peptides. For preconditioning of C18 cartridges, 1 mL of methanol was added to each column followed by 1 mL of solution B (0.1% formic acid, 80% acetonitrile) and 1 mL of solution A (0.1% formic acid, ddH2O) twice. Samples […]
(§6) were loaded to their respective columns and once samples had passed, columns were washed twice with solution A to remove unwanted components from the loading step. Elution of samples was carried out via introduction of 40% and 60% acetonitrile steps. Samples were dried and snap frozen in liquid nitrogen.
(§7) TMT-Labeling. Desalted peptides were dried and resuspended in TMT-labeling buffer (200 mM EPPS pH 8.2, 20% acetonitrile). 10 μg of peptides per condition were subjected to TMT labeling with 1:2.5 peptide TMT ratio (w/w) for 1 h at room temperature. The labeling reaction was quenched by addition of hydroxylamine to a final concentration of 0.5% and incubation at room temperature for 15 minutes. Successful TMT labeling was verified by mixing equimolar ratios of peptides and subjecting the mix to single shot LC-MS/MS analysis. For high pH reversed phase fractionation on a Dionex analytical HPLC, 50 µg of pooled and purified TMT labelled samples were resuspended in 10 mM ammonium-bicarbonate (ABC), 5% acetonitrile, and separated on a 250 mm long C18 column (Aeris Peptide XB-C18, 4.6 mm ID, 2.6 µm particle size; Phenomenex) using a multistep gradient from 100% solvent A (5% acetonitrile, 10 mM ABC in water) to 60% solvent B (90% acetonitrile, 10 mM ABC in water) over 70 minutes. Eluting peptides were collected every 45 seconds into a total of 96 fractions, which were cross-concatenated into 24 fractions and dried in a vacuum concentrator and resuspended in 3% acetonitrile with 0.1% TFA for LC-MS analysis.
(§8) Mass spectrometry data acquisition. Tryptic peptides were analyzed on an Orbitrap Lumos coupled to an easy nLC 1200 (ThermoFisher Scientific) using a 35 cm long, 75 µm ID fused-silica column packed in house with 1.9 µm C18 particles (Reprosil pur, Dr. Maisch), and kept at 50 °C using an integrated column oven (Sonation). HPLC solvents consisted of 0.1% formic acid in water (buffer A) and 0.1% formic acid and 80% acetonitrile in water (buffer B). Assuming

[2] = target: T2, kinase protein levels in MCF-7 cells (Homo sapiens, UniProt A0A096LP01); experiment: TMT-labeled quantitative proteomics; assay type: cell-based; conditions: MCF7, 1 µM
T2 construct: endogenous in cells; host or cells: MCF-7
Description: as §1, §2, §3, §4, §5, §6, §7, §8

[3] = target: T3, kinase protein levels in MCF-7 cells (Homo sapiens, UniProt Q9BTL3); experiment: TMT-labeled quantitative proteomics; assay type: cell-based; conditions: protein FAM103A1; MCF7; 1 µM; set5
T3 construct: endogenous in cells; host or cells: MCF-7
Description: as §1, §2, §3, §4, §5, §6, §7, §8

Jurkat cells = experiment: CellTiterGlo cell viability assay; assay type: cell-based, human; conditions: 24 h
Description: The effects of the compounds on cell viability was determined using the CellTiter-Glo® 2.0 Cell Viability Assay (Promega: G9241) following manufacturer’s protocol. Ten µL of Jurkat cells at […]
After equilibration, PROTACs were titrated at various concentrations using an Echo acoustic […]
volume of CellTiter-Glo® 2.0 reagent (10 µL) was added to each well and cells were incubated for 10 minutes at room temperature. Filtered luminescence was measured on a PHERAstar plate reader (BMG Labtech) and data was evaluated using GraphPad Prism 9 software employing a normalized curve it with the following equation: Y=Bottom + (Top-Bottom)/(1+10(LogEC50-X) *HillSlope).
Sample preparation. Jurkat cells (ATCC © HTB-22) were cultured in RPMI (Thermo: […]

full-length AAK1 = full-length AAK1 (Homo sapiens, UniProt Q2M2I8); experiment: NanoBRET target engagement assay, intact and permeabilized cells
Description: as §9, §10, §11, §12

[4] = target: T4, kinase protein levels in MCF-7 cells (Homo sapiens, UniProt A0A0B4J2F0); experiment: TMT-labeled quantitative proteomics; assay type: cell-based; conditions: protein PIGBOS1; MCF7; 1 µM; set2
T4 construct: endogenous in cells; host or cells: MCF-7
T4 sequence (A0A0B4J2F0 1-54): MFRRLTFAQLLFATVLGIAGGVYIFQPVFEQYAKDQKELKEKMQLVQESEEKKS
Description: as §1, §2, §3, §4, §5, §6, §7, §8

[5] = target: T5, kinase protein levels in MCF-7 cells (Homo sapiens, UniProt A0A024RBG1); experiment: TMT-labeled quantitative proteomics; assay type: cell-based; conditions: protein NUDT4B; MCF7; 1 µM; set2
T5 construct: endogenous in cells; host or cells: MCF-7
Description: as §1, §2, §3, §4, §5, §6, §7, §8

[6] = target: T6, kinase protein levels in MCF-7 cells (Homo sapiens, UniProt P0DPI2); experiment: TMT-labeled quantitative proteomics; assay type: cell-based; conditions: protein GATD3; MCF7; 1 µM; set2
T6 construct: endogenous in cells; host or cells: MCF-7
T6 sequence (P0DPI2 42-268): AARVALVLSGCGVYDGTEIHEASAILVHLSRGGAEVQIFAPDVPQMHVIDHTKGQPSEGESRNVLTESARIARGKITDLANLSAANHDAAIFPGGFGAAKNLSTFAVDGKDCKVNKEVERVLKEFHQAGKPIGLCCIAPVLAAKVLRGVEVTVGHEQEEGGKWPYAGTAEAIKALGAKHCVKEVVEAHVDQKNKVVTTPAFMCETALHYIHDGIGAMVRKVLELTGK
Description: as §1, §2, §3, §4, §5, §6, §7, §8

[7] = target: T7, kinase protein levels in MCF-7 cells (Homo sapiens, UniProt A0A0U1RRE5); experiment: TMT-labeled quantitative proteomics; assay type: cell-based; conditions: protein NBDY; MCF7; 1 µM; set2
T7 construct: endogenous in cells; host or cells: MCF-7
T7 sequence (A0A0U1RRE5 1-68): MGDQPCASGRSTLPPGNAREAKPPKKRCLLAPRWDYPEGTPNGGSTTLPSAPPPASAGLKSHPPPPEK
Description: as §1, §2, §3, §4, §5, §6, §7, §8

[8] = AURKA intact (IC50±sd)/μM, intact cells
[9] = AURKA permeabilized (IC50±sd)/μM, permeabilized cells
[10] = protein NBPF19;NBPF15;NBPF8;NBPF10;NBPF3;NBPF11;NBPF26;NBPF14;NBPF1;NBPF12
[11] = AAK1 intact (IC50±sd)/μM, NanoBRET, intact cells, mean of duplicates, ^a values estimated by extrapolation
[12] = AAK1 permeabilized (IC50±sd)/μM, NanoBRET, permeabilized cells, mean of duplicates

T3 sequence (Q9BTL3 whole entry): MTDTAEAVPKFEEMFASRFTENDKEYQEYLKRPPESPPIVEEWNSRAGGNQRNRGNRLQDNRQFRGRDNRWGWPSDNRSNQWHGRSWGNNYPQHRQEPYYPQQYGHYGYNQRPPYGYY
Chain of full-length AAK1 (Q2M2I8 whole entry): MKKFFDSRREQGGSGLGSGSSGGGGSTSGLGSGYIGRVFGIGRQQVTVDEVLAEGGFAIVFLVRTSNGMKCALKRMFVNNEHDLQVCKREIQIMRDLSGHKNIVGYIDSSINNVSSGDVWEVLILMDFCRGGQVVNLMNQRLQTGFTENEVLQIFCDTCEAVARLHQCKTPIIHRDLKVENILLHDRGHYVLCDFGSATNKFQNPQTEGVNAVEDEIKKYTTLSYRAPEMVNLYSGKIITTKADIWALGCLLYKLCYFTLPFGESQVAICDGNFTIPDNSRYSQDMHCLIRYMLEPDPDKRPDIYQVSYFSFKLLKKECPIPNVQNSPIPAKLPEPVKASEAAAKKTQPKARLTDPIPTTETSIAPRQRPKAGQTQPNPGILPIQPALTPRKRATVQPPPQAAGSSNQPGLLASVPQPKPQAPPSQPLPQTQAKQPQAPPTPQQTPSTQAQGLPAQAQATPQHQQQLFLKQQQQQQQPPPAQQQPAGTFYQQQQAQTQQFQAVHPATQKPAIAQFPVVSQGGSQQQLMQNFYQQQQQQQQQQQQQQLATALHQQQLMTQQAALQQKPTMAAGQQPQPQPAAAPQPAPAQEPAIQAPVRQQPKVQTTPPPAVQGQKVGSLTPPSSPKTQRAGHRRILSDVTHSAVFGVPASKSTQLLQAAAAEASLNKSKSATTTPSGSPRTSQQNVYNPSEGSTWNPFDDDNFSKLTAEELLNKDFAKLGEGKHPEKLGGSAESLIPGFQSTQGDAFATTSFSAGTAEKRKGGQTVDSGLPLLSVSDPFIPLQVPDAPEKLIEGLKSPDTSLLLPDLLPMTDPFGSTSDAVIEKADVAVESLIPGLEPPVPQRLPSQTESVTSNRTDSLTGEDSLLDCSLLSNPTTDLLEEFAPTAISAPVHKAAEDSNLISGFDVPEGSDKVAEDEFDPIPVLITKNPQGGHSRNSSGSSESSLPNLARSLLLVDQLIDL
T2 sequence (A0A096LP01 whole entry): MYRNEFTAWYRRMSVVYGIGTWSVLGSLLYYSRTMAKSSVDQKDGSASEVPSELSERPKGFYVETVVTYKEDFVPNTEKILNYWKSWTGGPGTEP
Chain of VHL (P40337 whole entry, the tested form may be a part): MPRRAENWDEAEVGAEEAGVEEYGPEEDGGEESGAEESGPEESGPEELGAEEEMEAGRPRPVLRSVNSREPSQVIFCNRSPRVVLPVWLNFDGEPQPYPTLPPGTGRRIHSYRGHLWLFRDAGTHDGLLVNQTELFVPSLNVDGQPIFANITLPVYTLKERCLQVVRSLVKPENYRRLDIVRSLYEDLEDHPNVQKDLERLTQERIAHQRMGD
T5 sequence (A0A024RBG1 whole entry): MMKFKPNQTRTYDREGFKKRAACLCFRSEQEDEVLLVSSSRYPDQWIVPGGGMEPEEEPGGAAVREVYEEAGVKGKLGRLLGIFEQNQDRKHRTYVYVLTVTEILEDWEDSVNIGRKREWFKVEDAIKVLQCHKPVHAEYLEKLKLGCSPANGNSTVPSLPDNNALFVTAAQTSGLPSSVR

Row | Compound | IC50 (VHL) | IC50 (AURKA; [8]) | IC50 (AURKA; [9]) | kinase degradation [1] | log2FC (compound/DMSO) ([1]; protein ARHGEF5;ARHGEF35) | log2FC (compound/DMSO) [1, 10] | P.Value (compound/DMSO) ([2]; protein LINC00493, set5) | log2FC (compound/DMSO) ([2]; protein LINC00493, set5) | P.Value (compound/DMSO) [3] | log2FC (compound/DMSO) [3] | IC50 (full-length AAK1; [11]) | IC50 (full-length AAK1; [12]) | further results
1 | Cc1ncsc1-c1ccc(CNC(=O)[C@@H]2C[C@@H](O)CN2C(=O)[C@@H](NC(=O)CCOCCOCCN2CCN(c3ccc(Nc4ncc(Cl)c(Nc5ccccc5C(N)=O)n4)cc3)CC2)C(C)(C)C)cc1 [6-a] | 1.123 ± 0.005 µM | 0.203 ± 0.01 µM | 0.105 ± 0.007 µM | significant degradation of several kinases | 0.1364 | -0.2637 | 0.02321 | -0.4581 | 0.2865 | 0.1658 | 0.088 ± 0.003 µM | 0.028 ± 0.001 µM | effect on cell viability (cytotoxicity) (Jurkat cells): particularly pronounced effects on cell viability; IC50 (Jurkat cells; Homo sapiens, mean of triplicates, ^b/^c values estimated, read-out: IC50±sd/μM (cell viability)): ~0.8 µM
2 | Cc1ncsc1-c1ccc(CNC(=O)[C@@H]2C[C@@H](O)CN2C(=O)[C@@H](NC(=O)CCCCCCN2CCN(c3cc(Nc4cc(C5CC5)[nH]n4)nc(Nc4ccc(CC#N)cc4)n3)CC2)C(C)(C)C)cc1 [4-c] | 4.32 ± 1.46 µM | ~5.98 µM | 2.73 ± 0.78 µM | significant degradation of several kinases | 0.09465 | -0.3485 | 0.06841 | 0.3546 | 0.9983 | -0.0003068 | 0.443 ± 0.043 µM | 0.178 ± 0.029 µM | –
3 | Cc1ncsc1-c1ccc(CNC(=O)[C@@H]2C[C@@H](O)CN2C(=O)[C@@H](NC(=O)CCOCCOCCOCCOCCOCCOCCN2CCN(c3cc(Nc4cc(C5CC5)[nH]n4)nc(Nc4ccc(CC#N)cc4)n3)CC2)C(C)(C)C)cc1 [4-b] | 0.97 ± 0.013 µM | ~18.9 µM | 4.84 ± 2.01 µM | did not result in significant degradation of any kinase | 0.1142 | 0.1563 | 0.7132 | 0.05687 | 0.9701 | 0.005351 | ~1.84 µM | 0.081 µM | AAK1 intact (IC50±sd)/μM (full-length AAK1; NanoBRET, intact cells, mean of duplicates, ^a values estimated by extrapolation): single-digit micromolar; cell permeability / cell penetration (full-length AAK1; as shown by the NanoBRET data (intact vs permeabilized cells)): Inefficient cell penetration
4 | CC(=O)N[C@H](C(=O)N1C[C@H](O)C[C@H]1C(=O)NCc1ccc(-c2scnc2C)cc1OCCOCCOCCOCCOCCC(=O)N1CCN(c2cc(Nc3cc(C4CC4)[nH]n3)nc(Nc3ccc(CC#N)cc3)n2)CC1)C(C)(C)C [4-d] | 0.366 ± 0.064 µM | 4.62 ± 1.12 µM | 1.52 ± 0.061 µM | did not result in significant degradation of any kinase | – | – | – | – | – | – | 0.126 ± 0.033 µM | 0.038 ± 0.006 µM | P.Value (compound/DMSO) [4]: 0.6355; log2FC (compound/DMSO) [4]: 0.04834; P.Value (compound/DMSO) [5]: 0.1315; log2FC (compound/DMSO) [5]: -0.2481; P.Value (compound/DMSO) [6]: 0.2539; log2FC (compound/DMSO) [6]: -0.1491; P.Value (compound/DMSO) ([2]; protein SMIM26, set2): 0.9318; log2FC (compound/DMSO) ([2]; protein SMIM26, set2): 0.01005; P.Value (compound/DMSO) [7]: 0.03785; log2FC (compound/DMSO) [7]: -0.3975
